Test results from the supplement of paper PMC10307832.

Columns and labels:
Test in all cases: relative viability (nuclei count vs DMSO), 5 days (fraction); higher = more cells survive
Crenolanib + Alpelisib = compound: CC1(COc2ccc3c(c2)ncn3-c2ccc3cccc(N4CCC(N)CC4)c3n2)COC1 [Crenolanib] + Cc1nc(NC(=O)N2CCC[C@H]2C(N)=O)sc1-c1ccnc(C(C)(C)C(F)(F)F)c1 [Alpelisib] (partner 2 µM)
Method in brief: (§1)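 Lung cancer cell lines, seeded in 1536-well plates, were treated the following day by pin tool with a single drug or with five library-drug doses (not always all listed) in √10 steps on top of a fixed anchor-drug dose. Cells were fixed and nuclei stained in one step after 5 days, and nuclei were counted. Relative viability is the nuclei count for treated wells divided by that for vehicle wells, reported as medians of duplicate plates.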

Tivantinib + Foretinib = compound: O=C1NC(=O)[C@@H](c2cn3c4c(cccc24)CCC3)[C@@H]1c1c[nH]c2ccccc12 [Tivantinib] + COc1cc2c(Oc3ccc(NC(=O)C4(C(=O)Nc5ccc(F)cc5)CC4)cc3F)ccnc2cc1OCCCN1CCOCC1 [Foretinib] (partner 0.25 µM)
Method in brief: as §1

Crenolanib + Dasatinib = compound: CC1(COc2ccc3c(c2)ncn3-c2ccc3cccc(N4CCC(N)CC4)c3n2)COC1 [Crenolanib] + Cc1nc(Nc2ncc(C(=O)Nc3c(C)cccc3Cl)s2)cc(N2CCN(CCO)CC2)n1 [Dasatinib] (partner 0.075 µM)
Method in brief: as §1

Tivantinib + Phenformin = compound: O=C1NC(=O)[C@@H](c2cn3c4c(cccc24)CCC3)[C@@H]1c1c[nH]c2ccccc12 [Tivantinib] + N=C(N)NC(=N)NCCc1ccccc1 [Phenformin] (partner 250 µM)
Method in brief: as §1

Cell Line | relative viability (Crenolanib + Alpelisib; first compound 0.01 µM) | relative viability (Crenolanib + Alpelisib; first compound 0.03162 µM) | relative viability (Crenolanib + Alpelisib; first compound 0.1 µM) | relative viability (Crenolanib + Alpelisib; first compound 0.3162 µM) | relative viability (Crenolanib + Alpelisib; first compound 1 µM) | relative viability (Tivantinib + Foretinib; first compound 0.01 µM) | relative viability (Tivantinib + Foretinib; first compound 0.03162 µM) | relative viability (Tivantinib + Foretinib; first compound 0.1 µM) | relative viability (Tivantinib + Foretinib; first compound 0.3162 µM) | relative viability (Crenolanib + Dasatinib; first compound 0.01 µM) | relative viability (Crenolanib + Dasatinib; first compound 0.03162 µM) | relative viability (Crenolanib + Dasatinib; first compound 0.1 µM) | relative viability (Crenolanib + Dasatinib; first compound 0.3162 µM) | relative viability (Crenolanib + Dasatinib; first compound 1 µM) | relative viability (Tivantinib + Phenformin; first compound 0.01 µM) | relative viability (Tivantinib + Phenformin; first compound 0.03162 µM) | relative viability (Tivantinib + Phenformin; first compound 0.1 µM) | relative viability (Tivantinib + Phenformin; first compound 0.3162 µM)
NCI-H23 | 0.845 | 0.797 | 0.604 | 0.778 | 0.741 | 1.08 | 0.957 | 1 | 0.801 | 0.804 | 0.778 | 0.71 | 0.848 | 0.643 | 0.732 | 0.886 | 0.749 | 0.792
NCI-H322M | 0.807 | 0.909 | 0.829 | 0.913 | 0.841 | 1.02 | 0.922 | 0.943 |  | 0.241 | 0.258 | 0.255 | 0.251 | 0.303 | 0.753 | 0.708 | 0.754 | 
NCI-H358 | 0.897 | 1.01 | 0.756 | 0.991 | 0.605 | 0.716 | 0.754 | 0.508 | 0.273 | 0.146 | 0.187 | 0.188 | 0.162 | 0.168 | 0.339 | 0.327 | 0.282 | 0.189
NCI-H441 | 0.708 |  | 0.888 | 0.732 | 0.792 | 0.749 | 1.1 | 1.01 | 0.876 | 0.555 | 0.669 | 0.601 | 0.681 | 0.578 | 0.872 | 0.84 | 0.777 | 0.828
NCI-H522 |  |  |  |  |  |  |  |  |  | 0.987 | 1.01 | 0.899 | 0.854 | 0.975 | 0.604 | 0.646 | 0.636 | 0.644
NCI-H1299 | 1.04 | 1.06 | 0.982 | 1.06 | 1.05 | 1.1 | 1.04 | 1.04 | 1.07 |  |  |  |  |  |  |  |  | 
NCI-H1623 |  |  |  |  |  | 0.87 | 0.745 | 0.818 |  | 0.55 | 0.515 | 0.548 | 0.558 | 0.504 | 0.574 | 0.547 | 0.49 | 
NCI-H1650 |  |  |  |  |  | 1.08 | 1.11 | 1.02 | 0.972 | 0.301 | 0.338 | 0.29 | 0.285 | 0.32 | 0.438 | 0.352 | 0.416 | 0.32
NCI-H1703 | 0.33 | 0.378 | 0.242 | 0.174 | 0.151 | 0.384 | 0.335 | 0.319 | 0.307 |  |  |  |  |  |  |  |  | 
NCI-H1792 | 0.707 | 0.741 | 0.697 | 0.705 | 0.666 |  |  |  |  | 0.779 | 0.777 | 0.751 | 0.866 | 0.747 | 0.396 | 0.567 | 0.297 | 0.492
NCI-H2342 |  |  |  |  |  | 1.08 | 1.15 | 0.948 | 0.682 | 0.338 | 0.304 | 0.307 | 0.338 | 0.316 | 0.579 | 0.671 | 0.568 | 0.495
SW 900 |  |  |  |  |  | 0.831 | 0.934 | 0.818 | 0.888 | 0.719 | 0.725 | 0.595 | 0.581 | 0.404 | 0.693 | 0.527 | 0.573 | 0.474
